Data from PubChem BioAssay (NCI).
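Five concentrations, 48 hours, 96-well plates. Here, GI50 denotes the concentration required for 50% inhibition of growth. Definition used: TGI = concentration required for complete inhibition of growth.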

Experiments:
Test in all cases: growth of human tumour cells (NCI), 48 h
[1] = test system: IGROV1 ovarian
[2] = test system: LOX IMVI melanoma
[3] = test system: HL-60(TB) leukemia
[4] = test system: OVCAR-5 ovarian
[5] = test system: OVCAR-4 ovarian
[6] = test system: MDA-MB-231 breast
[7] = test system: RXF 393 renal
[8] = test system: OVCAR-3 ovarian
[9] = test system: SF-295 CNS
[10] = test system: HOP-62 NSCLC
[11] = test system: CCRF-CEM leukemia
[12] = test system: UACC-62 melanoma
[13] = test system: TK-10 renal
[14] = test system: ACHN renal
[15] = test system: HCT-15 colon
[16] = test system: PC-3 prostate
[17] = test system: SK-MEL-5 melanoma
[18] = test system: KM12 colon
[19] = test system: SN12C renal
[20] = test system: HOP-92 NSCLC
[21] = test system: EKVX NSCLC
[22] = test system: T-47D breast
[23] = test system: UACC-257 melanoma
[24] = test system: NCI-H23 lung
[25] = test system: NCI/ADR-RES ovarian
[26] = test system: M14 melanoma
[27] = test system: NCI-H460 lung
[28] = test system: 786-0 renal
[29] = test system: MOLT-4 leukemia
[30] = test system: NCI-H226 lung
[31] = test system: HT29 colon
[32] = test system: SF-539 CNS
[33] = test system: OVCAR-8 ovarian
[34] = test system: SNB-19 CNS
[35] = test system: A498 renal
[36] = test system: SK-MEL-28 melanoma
[37] = test system: U251 CNS
[38] = test system: HCT-116 colon
[39] = test system: SF-268 CNS
[40] = test system: MDA-MB-435
[41] = test system: MCF7 breast
[42] = test system: HS 578T breast
[43] = test system: SK-MEL-2 melanoma
[44] = test system: HCC-2998 colon
[45] = test system: MALME-3M melanoma
[46] = test system: SK-OV-3 ovarian
[47] = test system: RPMI-8226 leukemia
[48] = test system: NCI-H522 lung
[49] = test system: A549 NSCLC
[50] = test system: CAKI-1 renal
[51] = test system: DU-145 prostate
[52] = test system: SW-620 colon
[53] = test system: UO-31 renal
[54] = test system: BT-549 breast
[55] = test system: SNB-75 CNS
[56] = test system: COLO 205 colon
[57] = test system: K-562 leukemia

With `COc1cc(/C=C\c2cccnc2Nc2ccccc2)cc(OC)c1OC` the GI50 [1] was 12.6 µM, the TGI [1] was > 100 µM and the GI50 [2] was 4.51 µM. It also gave a TGI [2] of 24.6 µM, a GI50 [3] of 8 µM and a TGI [3] of 36.7 µM. For the same compound, the GI50 [4] was 16.3 µM, the TGI [4] was > 100 µM and the GI50 [5] was 9.78 µM. The TGI [5] was > 100 µM, the GI50 [6] was 12.6 µM and the TGI [6] was > 100 µM. It also gave a GI50 [7] of 5.22 µM, a TGI [7] of 64.8 µM and a GI50 [8] of 7.45 µM. It also gave a TGI [8] of 28.7 µM, a GI50 [9] of 4.92 µM and a TGI [9] of 35.9 µM. The GI50 [10] was 12.1 µM, the TGI [10] was > 100 µM and the GI50 [11] was 7.08 µM. The TGI [11] was > 100 µM, the GI50 [12] was 4.96 µM and the TGI [12] was 25.4 µM. The GI50 [13] was 15.5 µM, the TGI [13] was 80.7 µM and the GI50 [14] was 5.33 µM. The TGI [14] was 78.1 µM, the GI50 [15] was 5.02 µM and the TGI [15] was > 100 µM. For the same compound, the GI50 [16] was 7.81 µM, the TGI [16] was 75.1 µM and the GI50 [17] was 4.17 µM. For the same compound, the TGI [17] was 16.4 µM, the GI50 [18] was 6.5 µM and the TGI [18] was > 100 µM. For the same compound, the GI50 [19] was 5.1 µM, the TGI [19] was > 100 µM and the GI50 [20] was 0.947 µM. The TGI [20] was 9.17 µM, the GI50 [21] was 7.55 µM and the TGI [21] was > 100 µM. The GI50 [22] was 5.3 µM, the TGI [22] was 47.6 µM and the GI50 [23] was 8.52 µM. The TGI [23] was 65.7 µM, the GI50 [24] was 10.2 µM and the TGI [24] was > 100 µM. For the same compound, the GI50 [25] was 4.44 µM, the TGI [25] was 63.2 µM and the GI50 [26] was 8.99 µM. For the same compound, the TGI [26] was 38.1 µM, the GI50 [27] was 3.61 µM and the TGI [27] was 26.7 µM. The GI50 [28] was 5.98 µM, the TGI [28] was 44.1 µM and the GI50 [29] was 6.72 µM. The TGI [29] was 46.2 µM, the GI50 [30] was 10.8 µM and the TGI [30] was 33.2 µM. It also gave a GI50 [31] of 5.51 µM, a TGI [31] of 98.3 µM and a GI50 [32] of 12.2 µM. For the same compound, the TGI [32] was > 100 µM, the GI50 [33] was 6.7 µM and the TGI [33] was > 100 µM. For the same compound, the GI50 [34] was 6.8 µM, the TGI [34] was > 100 µM and the GI50 [35] was 2.64 µM. It also gave a TGI [35] of 36.5 µM, a GI50 [36] of 5.43 µM and a TGI [36] of 41 µM. The GI50 [37] was 4.1 µM, the TGI [37] was > 100 µM and the GI50 [38] was 3.77 µM. The TGI [38] was 15.6 µM, the GI50 [39] was 8.19 µM and the TGI [39] was > 100 µM. For the same compound, the GI50 [40] was 5.63 µM, the TGI [40] was 43.3 µM and the GI50 [41] was 3.97 µM. For the same compound, the TGI [41] was 44.7 µM, the GI50 [42] was 13.2 µM and the TGI [42] was > 100 µM. The GI50 [43] was 8 µM, the TGI [43] was 28.8 µM and the GI50 [44] was 7.74 µM. The TGI [44] was > 100 µM, the GI50 [45] was 15.3 µM and the TGI [45] was 87.4 µM. The GI50 [46] was 11.1 µM, the TGI [46] was > 100 µM and the GI50 [47] was 6.83 µM. The TGI [47] was 34.8 µM, the GI50 [48] was 7.44 µM and the TGI [48] was 40.7 µM. For the same compound, the GI50 [49] was 4.21 µM, the TGI [49] was > 100 µM and the GI50 [50] was 4.01 µM. The TGI [50] was 61.1 µM, the GI50 [51] was 6.22 µM and the TGI [51] was > 100 µM. The GI50 [52] was 4.81 µM, the TGI [52] was > 100 µM and the GI50 [53] was 5.09 µM. For the same compound, the TGI [53] was 72.8 µM, the GI50 [54] was 14.3 µM and the TGI [54] was 65.3 µM. For the same compound, the GI50 [55] was 4.12 µM, the TGI [55] was 57.5 µM and the GI50 [56] was 4.44 µM. The TGI [56] was 16.2 µM.

In the case of `COC(=O)Nc1nc2ccc(Sc3ccc(NC(=O)Nc4cc(C(F)(F)F)ccc4F)cc3)cc2[nH]1`, the GI50 [1] is reported as 3.52 µM, the TGI [1] is reported as 11.1 µM and the GI50 [2] is reported as 1.5 µM. For the same compound, the TGI [2] was 6.16 µM, the GI50 [3] was 1.46 µM and the TGI [3] was 12.3 µM. For the same compound, the GI50 [4] was 3.5 µM, the TGI [4] was 9.24 µM and the GI50 [5] was 3.64 µM. For the same compound, the TGI [5] was 10.7 µM, the GI50 [6] was 2.84 µM and the TGI [6] was 9.32 µM. The GI50 [7] was 3.29 µM, the TGI [7] was 8.05 µM and the GI50 [57] was 0.739 µM. It also gave a TGI [57] of 5.89 µM, a GI50 [8] of 3.05 µM and a TGI [8] of 6.26 µM. The GI50 [9] was 1.96 µM, the TGI [9] was 7.52 µM and the GI50 [10] was 3.73 µM. The TGI [10] was 9.56 µM, the GI50 [11] was 3.3 µM and the TGI [11] was 12.5 µM. It also gave a GI50 [12] of 1.85 µM, a TGI [12] of 8.38 µM and a GI50 [13] of 5.11 µM. It also gave a TGI [13] of 11.3 µM, a GI50 [14] of 3.58 µM and a TGI [14] of 10.2 µM. It also gave a GI50 [15] of 1.62 µM, a TGI [15] of 8.19 µM and a GI50 [16] of 3.38 µM. The TGI [16] was 11.1 µM, the GI50 [17] was 0.95 µM and the TGI [17] was 11.7 µM. It also gave a GI50 [18] of 0.113 µM, a TGI [18] of 3.99 µM and a GI50 [19] of 3.82 µM. The TGI [19] was 11 µM, the GI50 [20] was 2.53 µM and the TGI [20] was 10.3 µM. The GI50 [21] was 4 µM, the TGI [21] was 21.8 µM and the GI50 [22] was 4.43 µM. For the same compound, the TGI [22] was 11.2 µM, the GI50 [23] was 4.63 µM and the TGI [23] was 25 µM. It also gave a GI50 [24] of 3.84 µM, a TGI [24] of 11.9 µM and a GI50 [25] of 2.74 µM. For the same compound, the TGI [25] was 11.5 µM, the GI50 [26] was 2.01 µM and the TGI [26] was 8.26 µM. For the same compound, the GI50 [27] was 2.73 µM, the TGI [27] was 6.79 µM and the GI50 [28] was 5.64 µM. It also gave a TGI [28] of 13.8 µM, a GI50 [29] of 3.26 µM and a TGI [29] of 17 µM. For the same compound, the GI50 [30] was 3.81 µM, the TGI [30] was 20.2 µM and the GI50 [31] was 1.4 µM. It also gave a TGI [31] of 4.54 µM, a GI50 [32] of 3.23 µM and a TGI [32] of 7.98 µM. For the same compound, the GI50 [33] was 4.23 µM, the TGI [33] was 11.6 µM and the GI50 [34] was 6.98 µM. It also gave a TGI [34] of 25 µM, a GI50 [35] of 2.71 µM and a TGI [35] of 10.7 µM. For the same compound, the GI50 [36] was 2.81 µM, the TGI [36] was 16.5 µM and the GI50 [37] was 3.27 µM. It also gave a TGI [37] of 7.28 µM, a GI50 [38] of 1.37 µM and a TGI [38] of 4.67 µM. It also gave a GI50 [39] of 3.89 µM, a TGI [39] of 9.6 µM and a GI50 [40] of 0.605 µM. It also gave a TGI [40] of 2.71 µM, a GI50 [41] of 0.988 µM and a TGI [41] of 5.33 µM. The GI50 [42] was 1.35 µM, the TGI [42] was 7.24 µM and the GI50 [43] was 3.15 µM. The TGI [43] was 10.6 µM, the GI50 [44] was 3.96 µM and the TGI [44] was 13.1 µM. The GI50 [45] was 2.99 µM, the TGI [45] was 23.6 µM and the GI50 [46] was 5.1 µM. For the same compound, the TGI [46] was 14.3 µM, the GI50 [47] was 7.14 µM and the TGI [47] was 24.1 µM. It also gave a GI50 [48] of 2.05 µM, a TGI [48] of 6.27 µM and a GI50 [49] of 3.01 µM. For the same compound, the TGI [49] was 7.06 µM, the GI50 [50] was 3.86 µM and the TGI [50] was 18.8 µM. It also gave a GI50 [51] of 4.15 µM, a TGI [51] of 8.27 µM and a GI50 [52] of 1.43 µM. The TGI [52] was 5.52 µM, the GI50 [53] was 5.9 µM and the TGI [53] was 19.8 µM. It also gave a GI50 [54] of 7.86 µM, a TGI [54] of 24.2 µM and a GI50 [55] of 3.32 µM. It also gave a TGI [55] of 10.9 µM, a GI50 [56] of 3.67 µM and a TGI [56] of 9.29 µM.
